Reference: patent publication US20250360092A1, “Carotenoid-fortified Yogurt and Methods For Preparing The Same” (Maravilla, LLC, priority 2024, published 2025)

Type: physicochemical
Conditions: start of the thirty-five-day storage at 4° C.
Description: Lutein and Zeaxanthin Stability Over Shelf Life. […] The stability may be influenced by the way lutein was added to the yogurt. When lutein is introduced post-fermentation via stirring, it tends to degrade in a concentration-dependent manner. […] This phenomenon may be attributed to the consumption of oxygen in milk by Lactobacillus bulgaricus during fermentation. […] The samplings were weighted into […] falcon tubes and 4 milliliters of tetrahydrofuran containing 0.1% was added to each sampling. The mixtures were vortexed for 30 seconds and centrifuged at 3500 grams for 5 minute at 20° C. […] The three extracts were then pooled and dried in the vacuum centrifuge at less than 30° C. and the dry residue was resuspended in 10 milliliters of acetone and read in the spectrophotometer. […] Carotenoid profiling, relative purity and quantification were carried out in a HPLC 1260 Infinity Series (Agilent Technologies, Santa Clara, CA, USA), equipped with a diode array detector, quaternary pump, degasser, thermostatically-controlled column compartment, and a thermostatically-controlled autosampler. […] For carotenoid quantification in human serum, 100 microliters of a sampling were injected. […] Differences in serum carotenoid concentration at each time point were assessed by paired t-test.

CC1=C[C@H](O)CC(C)(C)[C@H]1/C=C/C(C)=C/C=C/C(C)=C/C=C/C=C(C)/C=C/C=C(C)/C=C/C1=C(C)C[C@@H](O)CC1(C)C [Lutein, lutein]
starting concentration in the lutein-fortified yogurt sample: 14.60±0.41 mg/100 g

CC1=C(/C=C/C(C)=C/C=C/C(C)=C/C=C/C=C(C)/C=C/C=C(C)/C=C/C2=C(C)C[C@@H](O)CC2(C)C)C(C)(C)C[C@H](O)C1 [Zeaxanthin, zeaxanthin]
starting concentration in the lutein-fortified yogurt sample: 0.71±0.02 mg/100 g
